Results as given in patent publication US11766442B2, “T-cell lymphoma treatments” (City of Hope, priority 2017, dated 2023).
Like-named read-outs stand apart in the source and are kept apart here.

Columns and labels:
HUT78 cells = assay: Cell viability assay using HUT78 cells in a CELLTITER-GLO assay; assay type: cell-based, human
Description: Compound (1) and FK-228 (an anticancer agent used in CTCL) were tested in a cell viability assay using HUT78 cells in a CELLTITER-GLO® assay. […] See, FIG. 1B.
Compound (2) (FIG. 8A) was tested in a cell viability assay using HUT78 cells in a CELLTITER-GLO® assay. To determine IC50 value of Compound (2) against human CTCL HUT78 cells, viability assay was performed using CELLTITER-GLO® Reagent as described by the supplier (Promega, Madison, WI). Briefly, cells (7500/well) were seeded in opaque 96-well plates and exposed to Compound (1) in a dose-dependent manner for 72 h at 37° C. in 5% CO2. After 72 h treatment with compound (1), CELLTITER-GLO® Reagent ([…]) was added to 96-well plates. Viable cells which are metabolically active are directly proportional to the ATP present. Luminescent signals correlate with the amount of ATP present in cells. After 10 min incubation with CELLTITER-GLO® Reagent, luminescence was measured at an integration time of 1 second/well using an automated BMG plate reader. Dimethyl sulfoxide (DMSO) was used as the vehicle control. Each experiment was conducted in triplicate. IC50 values were determined using CalcuSyn software (Biosoft).

HUT78 CTCL cells [1] = assay: Cell apoptosis assay using HUT78 CTCL cells; assay type: cell-based, human; settings: incubated 72 h, read-out: IC50, apoptosis induction
Description: Compound (1) was tested in a cell apoptosis assay using HUT78 CTCL cells.

HUT78 CTCL cells [2] = tested on: HUT78 CTCL cells
Description: Compound (1) was tested in a cell proliferation assay using HUT78 CTCL cells. The cells were treated with 0.3, 1, 3, 10, 30, or 100 nM concentration of compound (1), and then incubated for 48 h or 72 h under the growth conditions. […] Cells cultured in the absence of compound (1) served as a control.

HUT78 CTCL cells [3] = assay: Carboxy-fluorescein succinimidyl ester (CFSE) staining cell proliferation assay; assay type: cell-based, human; settings: 1.0, 10 or 100 nM, incubated 72 h
Description: Compound (1) was tested in a carboxy-fluorescein succinimidyl ester (CFSE) stained HUT78 CTCL proliferation assay. HUT78 cells were stained with CFSE dye. The CFSE stained cells were plated into 96-well plates in growth medium. The resulted cells were treated with 1.0, 10, or 100 nM solution of compound (1), and then incubated for 72 h under the growth conditions. After, optical densities were read on a multiwell scanning spectrophotometer at wavelength 488 nm.

[4] = tested on: HUT78 CTCL mouse xenograft; assay: HUT78 CTCL mouse xenograft model; assay type: in vivo; settings: for Drug associated toxicity observed in mice: compound (1) 20 mg/kg gavage, FK-228 2 mg/kg intraperitoneal twice weekly
Description: Compound (1) and FK-228 were tested for tumor growth inhibition in CTCL mouse xenograft models. One group of mice was treated with 20 mg/kg of compound (1) using gavage during 3 consecutive days, followed by 3 consecutive days of break. Another group of mice was treated with 2 mg/kg of FK-228 intraperitoneal, twice weekly. Mice with no treatment served as a control. The tumor volume, size, and weight were compared 12 days after the treatments started.

| SMILES | IC50 (HUT78 cells; Homo sapiens) | IC50 (HUT78 cells) | IC50 (HUT78 CTCL cells [1]) | IC50 (HUT78 CTCL cells [2]; read-out: IC50, cell proliferation, incubated 48 h) | IC50 (HUT78 CTCL cells [2]; read-out: IC50, cell proliferation, incubated 72 h) | Inhibition of proliferation of CFSE stained HUT78 CTCL cells (HUT78 CTCL cells [3]) | Reduction of the tumor size ([4]; 20 mg/kg gavage, 3 consecutive days on, 3 days break, 12 days after treatment start) | Tumor weight inhibition ([4]; 20 mg/kg gavage, 3 consecutive days on, 3 days break, 12 days after treatment start, P<0.001) | Tumor growth inhibition (tumor volume) ([4]; 20 mg/kg gavage, 3 consecutive days on, 3 days break, compared 12 days after treatment start, versus FK-228 regimen and vehicle) | Drug associated toxicity observed in mice [4] |
| --- | --- | --- | --- | --- | --- | --- | --- | --- | --- | --- |
| C/C=C1\NC(=O)[C@H]2CSSCC/C=C/[C@H](CC(=O)N[C@H](C(C)C)C(=O)N2)OC(=O)[C@H](C(C)C)NC1=O [FK-228, Romidepsin, reference compound] | 6.95 nM | – | – | – | – | – | – | – | – | – |
| CN1C(=O)[C@@]23C[C@](C)(C#N)[C@H](c4ccc5c(c4)OCO5)N2C(=O)C1(C)S3=S (some centres unmarked) [compound (1)] | – | 6.61 nM | 19.7 nM | 75 nM | 10 nM | inhibits proliferation of HUT78 CTCL cells | results in the reduction of the tumor size | 89.8% | results in tumor growth inhibition | no toxicity was observed |
| C/C=C1\NC(=O)[C@H]2CSSCC/C=C/[C@H](CC(=O)N[C@H](C(C)C)C(=O)N2)OC(=O)[C@H](C(C)C)NC1=O [romidespin, romidepsin, reference compound] | – | – | – | – | – | – | – | – | – | Ascites and diarrhea |
